Measured values from PubChem BioAssay AID328 (DTP/NCI, 2004).
Toxic doses and inconclusive results are not listed.

System: BDF1 mice, P388 leukemia ip, median survival T/C
Assay: NCI In Vivo Anticancer Drug Screen. Data for tumor model P388 Leukemia (intraperitoneal) in B6D2F1 (BDF1) mice
Settings: endpoint: median survival time, higher = longer survival
Summary of the method: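 Vehicle-dosed animals serve as the reference; survival of compound-dosed, tumour-implanted mice is divided by it.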

[1] = dose: 50.0 mg/kg/injection, schedule: Q04DX003 (ip), vehicle: saline with Tween-80
[2] = dose: 50.0 mg/kg/injection, schedule: Q01DX009 (ip), vehicle: saline with Tween-80
[3] = dose: 100.0 mg/kg/injection, schedule: Q01DX009 (ip), vehicle: saline with Tween-80
[4] = dose: 200.0 mg/kg/injection, schedule: Q01DX009 (ip), vehicle: saline with Tween-80
[5] = dose: 100.0 mg/kg/injection, schedule: Q01DX009 (ip), vehicle: Klucel (hydroxypropylcellulose) (HPC)
[6] = dose: 100.0 mg/kg/injection, schedule: Q04DX003 (ip), vehicle: Klucel (hydroxypropylcellulose) (HPC)
[7] = dose: 200.0 mg/kg/injection, schedule: Q01DX009 (ip), vehicle: Klucel (hydroxypropylcellulose) (HPC)
[8] = dose: 200.0 mg/kg/injection, schedule: Q04DX003 (ip), vehicle: Klucel (hydroxypropylcellulose) (HPC)
[9] = dose: 400.0 mg/kg/injection, schedule: Q01DX009 (ip), vehicle: Klucel (hydroxypropylcellulose) (HPC)
[10] = dose: 400.0 mg/kg/injection, schedule: Q04DX003 (ip), vehicle: Klucel (hydroxypropylcellulose) (HPC)
[11] = dose: 100.0 mg/kg/injection, schedule: Q04DX003 (ip), vehicle: saline with Tween-80
[12] = dose: 200.0 mg/kg/injection, schedule: Q04DX003 (ip), vehicle: saline with Tween-80
[13] = dose: 400.0 mg/kg/injection, schedule: Q04DX003 (ip), vehicle: saline with Tween-80
[14] = dose: 400.0 mg/kg/injection, schedule: Q01DX009 (ip), vehicle: saline with Tween-80

Question: Which results are given for CCCC1CC(C(=O)NC(C(C)Cl)C2OC(SC)C(O)C(O)C2O)N(C)C1 (stereo not given)?
Answer: T/C (dose: 50.0 mg/kg/injection, schedule: Q01DX009 (ip), vehicle: saline): 100 % of control; T/C (dose: 100.0 mg/kg/injection, schedule: Q01DX009 (ip), vehicle: saline): 94 % of control; T/C (dose: 200.0 mg/kg/injection, schedule: Q01DX009 (ip), vehicle: saline): 102 % of control

Question: How did the T/C (dose: 50.0 mg/kg/injection, schedule: Q01DX005 (ip), vehicle: saline with Tween-80) turn out when O=C(CSc1nc2ccccc2s1)c1sc2sc3ccccc3[n+]2c1[O-] was run?
Answer: 97 % of control

Question: And the T/C (dose: 100.0 mg/kg/injection, schedule: Q01DX005 (ip), vehicle: saline with Tween-80)?
Answer: 97 % of control

Question: And the T/C (dose: 200.0 mg/kg/injection, schedule: Q01DX005 (ip), vehicle: saline with Tween-80)?
Answer: 87 % of control

Question: What does the source list for C#CC(C)OCC(C)OC (stereo not given)?
Answer: T/C (dose: 12.5 mg/kg/injection, schedule: Q04DX003 (ip), vehicle: saline with Tween-80): 118 % of control; T/C [1]: 118 % of control

Question: With COc1ccc2c(c1)CC[C@@H]1[C@@H]2CC[C@@]2(C)[C@H]1CC[C@@]2(O)C(F)=C(F)F as the molecule, how does the T/C [2] read?
Answer: 118 % of control

Question: And the T/C [3]?
Answer: 113 % of control

Question: What about the T/C [4] of the same molecule?
Answer: 104 % of control

Question: With O=C(/C=C\c1ccc(O)cc1)c1ccccc1 as the molecule, how does the T/C [5] read?
Answer: 105 % of control

Question: What about the T/C [6] of the same molecule?
Answer: 108 % of control

Question: What about the T/C [7] of the same molecule?
Answer: 110 % of control

Question: And the T/C [8]?
Answer: 100 % of control

Question: What about the T/C [9] of the same molecule?
Answer: 110 % of control

Question: What about the T/C [10] of the same molecule?
Answer: 104 % of control

Question: What does the source list for Nc1nc(=O)[nH]c(N)c1N=O?
Answer: T/C (dose: 25.0 mg/kg/injection, schedule: Q04DX003 (ip), vehicle: saline with Tween-80): 98 % of control; T/C [1]: 107 % of control; T/C [11]: 100 % of control; T/C [12]: 100 % of control; T/C [13]: 102 % of control

Question: Which results are given for O=[N+]([O-])c1ccccc1NC1c2ccccc2Oc2ccccc21?
Answer: T/C [6]: 116 % of control; T/C [8]: 122 % of control; T/C [10]: 122 % of control

Question: For O=C(c1ccccc1)C1Cc2ccccc2C1=O (stereo not given), which T/C (dose: 100.0 mg/kg/injection, schedule: Q01DX001 (ip), vehicle: Klucel (hydroxypropylcellulose) (HPC)) is on record?
Answer: 100 % of control

Question: And the T/C [5]?
Answer: 113 % of control

Question: And the T/C [6]?
Answer: 100 % of control

Question: And the T/C (dose: 200.0 mg/kg/injection, schedule: Q01DX001 (ip), vehicle: Klucel (hydroxypropylcellulose) (HPC))?
Answer: 100 % of control

Question: What about the T/C [7] of the same molecule?
Answer: 109 % of control

Question: And the T/C [8]?
Answer: 100 % of control

Question: What about the T/C (dose: 400.0 mg/kg/injection, schedule: Q01DX001 (ip), vehicle: Klucel (hydroxypropylcellulose) (HPC)) of the same molecule?
Answer: 95 % of control

Question: And the T/C [9]?
Answer: 118 % of control

Question: And the T/C [10]?
Answer: 90 % of control

Question: What does the source list for CCOC(=O)C1C2OC(=O)C(C(=O)C2N=Nc2ccc(-c3ccc(N=NC4C(=O)C5C(=O)OC4C(C(=O)OCC)C5C4CC=CCC4)cc3)cc2)C1C1CC=CCC1 (stereo not given)?
Answer: T/C [3]: 109 % of control; T/C [11]: 110 % of control; T/C [4]: 100 % of control; T/C [12]: 105 % of control; T/C [14]: 109 % of control; T/C [13]: 115 % of control

Question: For CC(=O)OC1OC(CSC(=N)N)C(OC(C)=O)C(OC(C)=O)C1OC(C)=O (stereo not given), which T/C [2] is on record?
Answer: 116 % of control

Question: And the T/C [3]?
Answer: 119 % of control

Question: And the T/C [4]?
Answer: 110 % of control

Question: For CC(C)(C)C[CH2][Hg][Cl], which T/C (dose: 3.13 mg/kg/injection, schedule: Q04DX003 (ip), vehicle: saline) is on record?
Answer: 105 % of control

Question: And the T/C (dose: 6.25 mg/kg/injection, schedule: Q04DX003 (ip), vehicle: saline)?
Answer: 100 % of control

Question: And the T/C (dose: 8.25 mg/kg/injection, schedule: Q04DX003 (ip), vehicle: saline sonified)?
Answer: 109 % of control

Question: And the T/C (dose: 12.5 mg/kg/injection, schedule: Q04DX003 (ip), vehicle: saline sonified)?
Answer: 113 % of control

Question: What about the T/C (dose: 18.75 mg/kg/injection, schedule: Q04DX003 (ip), vehicle: saline sonified) of the same molecule?
Answer: 100 % of control

Question: With COc1ccc(NC(=O)Oc2ccc3c(C)cc(=O)oc3c2)c(OC)c1 as the molecule, how does the T/C [4] read?
Answer: 155 % of control

Question: And the T/C [14]?
Answer: 100 % of control
